# Source: article PMC5428509, “Irreversible inhibition of BTK kinase by a novel highly selective inhibitor CHMFL-BTK-11 suppresses inflammatory response in rheumatoid arthritis model” (Scientific Reports, 2017)
# Columns and labels:
# Test in all cases: biochemical
# Set-up in all cases: KinomeScan competition binding panel (DiscoveRx), percent of control at 1 uM
# Details in all cases: read-out: Percent Control
# [1] = target: LIMK2 (Homo sapiens, UniProt P53671)
# Procedure, shortened: (§1)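 Selectivity profiled across 456 kinases/mutants by KinomeScan binding technology.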
# [2] = target: ERBB2 (Homo sapiens, UniProt P04626)
# Procedure, shortened: as §1
# [3] = target: CDK2 (Homo sapiens, UniProt P24941)
# Procedure, shortened: as §1
# [4] = target: BMPR1B (Homo sapiens, UniProt O00238)
# Procedure, shortened: as §1
# [5] = target: CSF1R (Homo sapiens, UniProt P07333)
# Procedure, shortened: as §1
# [6] = target: FER (Homo sapiens, UniProt P16591)
# Procedure, shortened: as §1
# [7] = target: FES (Homo sapiens, UniProt P07332)
# Procedure, shortened: as §1
# [8] = target: T1, NIM1 (Homo sapiens, UniProt Q8IY84)
# T1 construct: gene NIM1K
# Procedure, shortened: as §1
# [9] = target: T2, RSK2(Kin.Dom.2-C-terminal) (Homo sapiens, UniProt P51812)
# T2 construct: gene RPS6KA3; Kin.Dom.2-C-terminal
# Procedure, shortened: as §1
# [10] = target: NEK7 (Homo sapiens, UniProt Q8TDX7)
# Procedure, shortened: as §1
# [11] = target: MARK4 (Homo sapiens, UniProt Q96L34)
# Procedure, shortened: as §1
# [12] = target: T3, ASK1 (Homo sapiens, UniProt Q99683)
# T3 construct: gene MAP3K5
# Procedure, shortened: as §1
# [13] = target: ROCK2 (Homo sapiens, UniProt O75116)
# Procedure, shortened: as §1
# [14] = target: HIPK3 (Homo sapiens, UniProt Q9H422)
# Procedure, shortened: as §1
# [15] = target: T4, AMPK-alpha1 (Homo sapiens, UniProt Q13131)
# T4 construct: gene PRKAA1
# Procedure, shortened: as §1
# [16] = target: LIMK1 (Homo sapiens, UniProt P53667)
# Procedure, shortened: as §1
# [17] = target: CAMK2D (Homo sapiens, UniProt Q13557)
# Procedure, shortened: as §1
# [18] = target: PRKCI (Homo sapiens, UniProt P41743)
# Procedure, shortened: as §1
# [19] = target: T5, RSK1(Kin.Dom.1-N-terminal) (Homo sapiens, UniProt Q15418)
# T5 construct: gene RPS6KA1; Kin.Dom.1-N-terminal
# Procedure, shortened: as §1
# [20] = target: FLT3(N841I) (Homo sapiens, UniProt P36888, N841I)
# Procedure, shortened: as §1
# [21] = target: FLT3(ITD) (Homo sapiens, UniProt P36888, ITD)
# Procedure, shortened: as §1
# [22] = target: T6, MEK5 (Homo sapiens, UniProt Q13163)
# T6 construct: gene MAP2K5
# Procedure, shortened: as §1
# [23] = target: STK33 (Homo sapiens, UniProt Q9BYT3)
# Procedure, shortened: as §1
# [24] = target: MKNK2 (Homo sapiens, UniProt Q9HBH9)
# Procedure, shortened: as §1
# [25] = target: T7, ABL1(F317L)-nonphosphorylated (Homo sapiens, UniProt P00519, F317L)
# T7 construct: nonphosphorylated
# Procedure, shortened: as §1
# Sequence of CAMK2D (Q13557 whole entry): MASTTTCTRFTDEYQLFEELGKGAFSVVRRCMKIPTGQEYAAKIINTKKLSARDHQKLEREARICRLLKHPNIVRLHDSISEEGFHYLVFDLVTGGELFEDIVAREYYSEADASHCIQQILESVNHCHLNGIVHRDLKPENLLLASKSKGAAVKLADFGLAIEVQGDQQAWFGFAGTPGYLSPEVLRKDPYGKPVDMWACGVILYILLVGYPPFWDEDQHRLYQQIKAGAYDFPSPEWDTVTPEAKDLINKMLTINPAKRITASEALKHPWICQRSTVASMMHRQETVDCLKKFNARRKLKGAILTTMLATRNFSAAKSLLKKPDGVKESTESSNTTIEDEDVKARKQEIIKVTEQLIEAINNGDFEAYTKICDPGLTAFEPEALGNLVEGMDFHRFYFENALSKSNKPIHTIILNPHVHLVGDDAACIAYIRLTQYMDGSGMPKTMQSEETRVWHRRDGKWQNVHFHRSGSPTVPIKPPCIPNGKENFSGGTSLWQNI
# T2 sequence (P51812 whole entry): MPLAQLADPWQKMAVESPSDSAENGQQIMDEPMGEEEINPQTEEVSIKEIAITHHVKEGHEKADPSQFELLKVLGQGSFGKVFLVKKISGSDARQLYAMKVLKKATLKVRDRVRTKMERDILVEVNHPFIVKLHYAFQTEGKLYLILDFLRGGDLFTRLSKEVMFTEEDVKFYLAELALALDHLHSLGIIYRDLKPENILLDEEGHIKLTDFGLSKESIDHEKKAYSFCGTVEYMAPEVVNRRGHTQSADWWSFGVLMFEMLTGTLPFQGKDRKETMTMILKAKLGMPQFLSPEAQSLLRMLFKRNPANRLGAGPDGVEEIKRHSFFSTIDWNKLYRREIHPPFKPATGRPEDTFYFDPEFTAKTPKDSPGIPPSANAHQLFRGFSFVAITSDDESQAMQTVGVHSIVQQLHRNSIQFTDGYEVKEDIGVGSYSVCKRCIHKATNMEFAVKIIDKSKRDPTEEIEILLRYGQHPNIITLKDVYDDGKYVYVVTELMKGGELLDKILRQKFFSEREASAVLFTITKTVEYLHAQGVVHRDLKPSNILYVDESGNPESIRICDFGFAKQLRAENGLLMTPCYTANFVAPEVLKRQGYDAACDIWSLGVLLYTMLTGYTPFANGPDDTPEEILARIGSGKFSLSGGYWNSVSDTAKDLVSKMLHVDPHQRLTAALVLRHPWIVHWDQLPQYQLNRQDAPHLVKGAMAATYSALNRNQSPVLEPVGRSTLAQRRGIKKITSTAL
# T4 sequence (Q13131 whole entry): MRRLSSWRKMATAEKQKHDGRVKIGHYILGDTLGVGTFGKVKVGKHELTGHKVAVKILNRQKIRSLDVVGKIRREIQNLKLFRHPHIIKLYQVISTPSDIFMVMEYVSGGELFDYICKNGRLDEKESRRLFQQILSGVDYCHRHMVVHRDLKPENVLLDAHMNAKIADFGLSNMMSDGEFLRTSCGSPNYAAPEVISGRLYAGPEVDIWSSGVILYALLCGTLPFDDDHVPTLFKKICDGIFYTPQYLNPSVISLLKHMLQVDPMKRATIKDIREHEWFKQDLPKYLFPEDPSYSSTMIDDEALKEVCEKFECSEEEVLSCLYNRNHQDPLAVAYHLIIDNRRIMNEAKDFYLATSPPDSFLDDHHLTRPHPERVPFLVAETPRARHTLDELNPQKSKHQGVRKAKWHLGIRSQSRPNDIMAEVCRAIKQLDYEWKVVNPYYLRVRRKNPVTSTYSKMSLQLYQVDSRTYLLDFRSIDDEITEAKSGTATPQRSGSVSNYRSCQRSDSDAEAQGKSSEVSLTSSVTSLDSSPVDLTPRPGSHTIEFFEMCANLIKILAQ
# Sequence of HIPK3 (Q9H422 whole entry): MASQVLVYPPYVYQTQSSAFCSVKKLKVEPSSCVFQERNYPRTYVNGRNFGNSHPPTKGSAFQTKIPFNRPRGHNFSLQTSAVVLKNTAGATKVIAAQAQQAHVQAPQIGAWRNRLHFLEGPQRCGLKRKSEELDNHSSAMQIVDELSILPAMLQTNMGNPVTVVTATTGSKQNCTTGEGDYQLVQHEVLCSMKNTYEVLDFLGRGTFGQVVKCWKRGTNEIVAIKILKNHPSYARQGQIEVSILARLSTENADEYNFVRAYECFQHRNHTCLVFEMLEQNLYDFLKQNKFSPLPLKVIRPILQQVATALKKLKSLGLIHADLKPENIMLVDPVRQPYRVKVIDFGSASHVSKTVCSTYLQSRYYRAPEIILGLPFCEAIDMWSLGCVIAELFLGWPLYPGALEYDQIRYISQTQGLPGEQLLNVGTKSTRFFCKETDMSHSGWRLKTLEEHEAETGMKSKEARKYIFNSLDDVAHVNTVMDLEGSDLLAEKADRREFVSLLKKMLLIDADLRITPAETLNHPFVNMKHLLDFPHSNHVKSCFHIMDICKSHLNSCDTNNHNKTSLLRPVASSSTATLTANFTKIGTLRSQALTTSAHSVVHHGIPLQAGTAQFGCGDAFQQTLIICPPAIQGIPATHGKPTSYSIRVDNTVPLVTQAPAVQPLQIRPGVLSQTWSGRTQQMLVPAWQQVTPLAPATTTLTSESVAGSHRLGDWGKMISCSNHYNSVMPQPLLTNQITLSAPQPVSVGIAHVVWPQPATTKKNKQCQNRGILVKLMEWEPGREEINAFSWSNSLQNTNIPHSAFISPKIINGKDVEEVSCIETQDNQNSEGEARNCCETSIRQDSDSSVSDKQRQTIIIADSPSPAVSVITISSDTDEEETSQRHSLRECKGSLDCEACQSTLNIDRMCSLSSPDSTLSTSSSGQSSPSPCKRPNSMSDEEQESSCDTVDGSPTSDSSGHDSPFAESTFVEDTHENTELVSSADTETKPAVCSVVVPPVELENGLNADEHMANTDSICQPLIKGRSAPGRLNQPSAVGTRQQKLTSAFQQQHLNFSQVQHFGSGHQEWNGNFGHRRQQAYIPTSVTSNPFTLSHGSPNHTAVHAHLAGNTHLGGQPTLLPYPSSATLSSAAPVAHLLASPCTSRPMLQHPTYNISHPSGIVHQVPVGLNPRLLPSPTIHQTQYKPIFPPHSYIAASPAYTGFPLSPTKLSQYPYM
# Sequence of LIMK1 (P53667 whole entry): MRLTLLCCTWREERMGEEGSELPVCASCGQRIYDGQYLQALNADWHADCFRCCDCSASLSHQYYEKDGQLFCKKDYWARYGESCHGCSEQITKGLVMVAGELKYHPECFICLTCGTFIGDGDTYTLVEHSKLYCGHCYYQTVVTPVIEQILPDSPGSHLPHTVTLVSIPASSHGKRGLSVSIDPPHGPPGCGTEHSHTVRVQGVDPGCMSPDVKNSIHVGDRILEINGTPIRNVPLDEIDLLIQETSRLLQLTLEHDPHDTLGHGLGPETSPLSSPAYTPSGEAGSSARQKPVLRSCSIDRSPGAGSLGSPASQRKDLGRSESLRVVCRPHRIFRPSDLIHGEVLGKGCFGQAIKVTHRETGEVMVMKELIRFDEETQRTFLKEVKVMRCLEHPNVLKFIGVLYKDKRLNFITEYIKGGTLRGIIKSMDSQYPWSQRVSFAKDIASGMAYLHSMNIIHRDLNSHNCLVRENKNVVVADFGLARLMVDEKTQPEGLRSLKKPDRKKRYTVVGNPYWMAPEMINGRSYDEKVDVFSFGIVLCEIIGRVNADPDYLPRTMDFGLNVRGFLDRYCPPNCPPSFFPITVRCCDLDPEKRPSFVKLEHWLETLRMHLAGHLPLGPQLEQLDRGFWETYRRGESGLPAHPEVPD
# T6 sequence (Q13163 whole entry): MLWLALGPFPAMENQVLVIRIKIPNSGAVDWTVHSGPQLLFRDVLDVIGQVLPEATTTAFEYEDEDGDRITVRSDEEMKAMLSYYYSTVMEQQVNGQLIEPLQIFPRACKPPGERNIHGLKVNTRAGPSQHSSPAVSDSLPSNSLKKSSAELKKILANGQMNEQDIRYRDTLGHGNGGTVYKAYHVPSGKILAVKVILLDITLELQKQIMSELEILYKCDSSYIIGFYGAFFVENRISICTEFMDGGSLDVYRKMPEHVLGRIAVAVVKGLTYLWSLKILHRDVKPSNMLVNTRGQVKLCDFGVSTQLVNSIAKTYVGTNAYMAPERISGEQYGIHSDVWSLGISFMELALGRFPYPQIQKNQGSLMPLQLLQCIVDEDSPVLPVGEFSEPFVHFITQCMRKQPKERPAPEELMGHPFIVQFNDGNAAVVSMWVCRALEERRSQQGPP
# T5 sequence (Q15418 whole entry): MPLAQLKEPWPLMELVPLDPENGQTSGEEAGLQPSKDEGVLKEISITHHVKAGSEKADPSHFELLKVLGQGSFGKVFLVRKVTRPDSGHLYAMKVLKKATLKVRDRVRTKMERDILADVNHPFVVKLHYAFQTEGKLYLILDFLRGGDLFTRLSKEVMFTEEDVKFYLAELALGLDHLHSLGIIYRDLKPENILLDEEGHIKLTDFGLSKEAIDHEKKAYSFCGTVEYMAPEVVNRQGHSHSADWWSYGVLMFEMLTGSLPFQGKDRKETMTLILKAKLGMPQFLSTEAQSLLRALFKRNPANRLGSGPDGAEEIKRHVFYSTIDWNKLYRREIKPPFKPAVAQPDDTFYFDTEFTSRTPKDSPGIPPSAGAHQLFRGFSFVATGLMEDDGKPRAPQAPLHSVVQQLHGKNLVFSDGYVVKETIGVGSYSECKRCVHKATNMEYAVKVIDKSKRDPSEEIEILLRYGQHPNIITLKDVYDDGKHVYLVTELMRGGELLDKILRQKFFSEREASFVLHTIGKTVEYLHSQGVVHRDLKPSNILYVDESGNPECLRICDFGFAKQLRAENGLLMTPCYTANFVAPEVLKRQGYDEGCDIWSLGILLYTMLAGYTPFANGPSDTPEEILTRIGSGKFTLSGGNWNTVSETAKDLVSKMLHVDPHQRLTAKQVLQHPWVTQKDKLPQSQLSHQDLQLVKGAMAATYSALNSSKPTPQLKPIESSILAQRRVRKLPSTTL
smiles,measurement,setting,value
C=CC(=O)Nc1cc(-n2c(=O)ccc3cnc4ccc(-n5cccn5)cc4c32)ccc1C [CHMFL-BTK-11],remaining binding at 1 µM,[1],100%
same,remaining binding at 1 µM,[2],98%
same,remaining binding at 1 µM,[3],100%
same,remaining binding at 1 µM,[4],97%
same,remaining binding at 1 µM,[5],91%
same,remaining binding at 1 µM,[6],98%
same,remaining binding at 1 µM,[7],90%
same,remaining binding at 1 µM,[8],100%
same,remaining binding at 1 µM,[9],100%
same,remaining binding at 1 µM,[10],100%
same,remaining binding at 1 µM,[11],79%
same,remaining binding at 1 µM,[12],90%
same,remaining binding at 1 µM,[13],97%
same,remaining binding at 1 µM,[14],100%
same,remaining binding at 1 µM,[15],100%
same,remaining binding at 1 µM,[16],100%
same,remaining binding at 1 µM,[17],80%
same,remaining binding at 1 µM,[18],69%
same,remaining binding at 1 µM,[19],82%
same,remaining binding at 1 µM,[20],100%
same,remaining binding at 1 µM,[21],89%
same,remaining binding at 1 µM,[22],80%
same,remaining binding at 1 µM,[23],89%
same,remaining binding at 1 µM,[24],98%
same,remaining binding at 1 µM,[25],96%
